Measured values as given in patent US5149793A, “Exo-3',4'-O-benzylidene-3"-demethylchartreusin and its salts” (Ishihara Sangyo Kaisha, Ltd., priority 1989, dated 1992).
In brackets after ≈: the same amount, converted by molar mass. Read-outs that look alike come from different tables or passages of the source.

Columns and labels:
B-16 melanoma cells = assay: Antitumorous activity: growth inhibition of B-16 melanoma cells (Test Example 1); assay type: cell-based, mice; conditions: Mus musculus, B16, 1 hour drug exposure at 37° C., then 48 hours incubation
Experimental: B-16 melanoma cells were suspended in RPMI 1640 medium containing 5% fetal bovine serum in a concentration of 4×10^4 cells/ml. The resulting suspension was placed in the 12 wells (1 ml/well) of a plate-cum-wells, wherein preliminary incubation was then carried out for 24 hours. A test drug was dissolved in a mixture of dimethyl sulfoxide and a culture medium of 5% serum - RPMI 1640 (1:3 in volume ratio). Thus, drug solutions having various respective drug concentrations were prepared. 20 μl each of these drug solutions were respectively added to the wells of the plate. The resulting drug-added suspensions were subjected to incubation at 37° C. for 1 hour. Subsequently, the incubated medium were removed from the respective wells, which were then washed once with the same culture medium as mentioned above. Thereafter, the same culture medium as mentioned above was freshly placed in each of the wells of the plate, followed by incubation at 37° C. for 48 hours.
The number of cells in each well was counted according to a customary method using a Coulter counter.
The values of growth control rate in the members of each drug-treated group, which members corresponding to the respective wells of the plate were culture broths respectively treated with drug solutions having various respective drug concentrations, were calculated by comparison with the growth rate of the drug-untreated group. The inhibitory concentration of each test drug in which the growth control rate was 50% (IC50) was calculated from the above-calculated values of growth control rate.

[1] = result in words; already known; cited from earlier work
[2] = result in words; already known; cited from earlier work; remark: listed apart in the source
[3] = tested on: cells of experimental tumors of mice and the like, such as P-388 leukemia, L-1210 leukemia, B-16 melanoma, M-5076 sarcoma, Colon 26, and Lewis lung carcinoma; assay: Activity against cells of experimental tumors (general statement); assay type: cell-based; conditions: exo-BDMC or its salts; result in words
[4] = Antitumorous activity (general statement); conditions: result in words
[5] = Antibacterial activity (general statement); conditions: result in words
[6] = set-up: species or system mice; conditions: mouse, in vivo
Experimental: Exo-6-O-(N-trifluoroacetyl-β-aminoisobutyryl)-3',4'-O-benzylidenechartreusin was intravenously injected in a dose of 40 mg/kg into 160 DDY mice. 300 g of feces excreted within 24 hours after the intravenous injection were collected and ground down in a mortar. 1 liter of a mixed solvent (methanol:chloroform=1:1 in volume ratio) was added to the ground-down feces. The resulting mixture was stirred at 60° C. for 30 minutes to effect extraction, followed by separation of insolubles by filtration. The separated insolubles were admixed with 700 ml of the same mixed solvent as mentioned above to effect extraction again. The two resulting extracts were put together and concentrated under reduced pressure to obtain 9 g of crude exo-BDMC. The crude exo-BDMC was subjected to a purification operation by silica gel column chromatography (developing solvent: chloroform+methanol). The above-mentioned purification operation was repeated. An exo-BDMC-containing fraction obtained by the foregoing purification procedure was concentrated and then recrystallized from a mixed solvent (chloroform:methanol:ethyl acetate=2:1:1 in volume ratio) to obtain 50 mg of exo-BDMC. […]

[7] = tested on: Bacillus subtilis PCI 219; assay: Antibacterial activity, agar dilution method (Test Example 2); assay type: cell-based; conditions: PCI219
Text: (§1) The minimum inhibitory concentrations (MIC) of exo-BDMC against growth of various microorganisms were examined according to an agar dilution method.

[8] = tested on: Flavobacterium meningosepticum IFO 12535; assay: as above; assay type: cell-based; conditions: Elizabethkingia meningoseptica, IFO12535
Text: as §1

[9] = tested on: Bacillus megaterium IFO 12108; assay: as above; assay type: cell-based; conditions: Priestia megaterium, IFO12108
Text: as §1

[10] = tested on: Staphylococcus aureus 209P; assay: as above; assay type: cell-based
Text: as §1

[11] = tested on: Gram-positive bacteria or Gram-negative bacteria; assay: Growth inhibition of bacteria (general statement); assay type: cell-based; conditions: exo-BDMC or its salts; result in words

Structure (SMILES)	IC50 (B-16 melanoma cells) [µg/mL]	antitumorous activity [1]	antibacterial activity [2]	activities against cells of experimental tumors [3]	antitumorous activity [4]	antibacterial activity [5]	presence in the excreta of mice (metabolite of exo-3',4'-O-benzylidenechartreusin derivatives) [6]	MIC [7] [µg/mL]	MIC [8] [µg/mL]	MIC [9] [µg/mL]	MIC [10] [µg/mL]	capacity of inhibiting growth of bacteria [11]
CO[C@H]1[C@@H](O)[C@@H](C)O[C@H](O[C@H]2[C@H](Oc3cccc4c(O)c5c(=O)oc6ccc(C)c7c(=O)oc(c34)c5c67)O[C@H](C)[C@H](O)[C@@H]2O)[C@@H]1O [chartreusin]	9.2 (≈ 14.4 µM)	has antibacterial and antitumorous activities	has antibacterial and antitumorous activities	–	–	–	–	–	–	–	–	–
Cc1ccc2oc(=O)c3c(O)c4cccc(O[C@@H]5O[C@H](C)[C@@H]6OC(c7ccccc7)O[C@@H]6[C@H]5O[C@H]5O[C@H](C)[C@H](O)[C@H](O)[C@H]5O)c4c4oc(=O)c1c2c34 (stereo partly drawn) [exo-BDMC, exo-3',4'-O-benzylidene-3"-demethylchartreusin]	0.9 (≈ 1.26 µM)	–	–	exhibit activities against cells of experimental tumors	has antitumorous and antibacterial activities	has antitumorous and antibacterial activities	exists in the excreta of mice	1.56 (≈ 2.18 µM)	1.56 (≈ 2.18 µM)	1.56 (≈ 2.18 µM)	3.13 (≈ 4.38 µM)	strongly inhibiting growth of either Gram-positive bacteria or Gram-negative bacteria
CO[C@H]1[C@@H](O)[C@@H](C)O[C@H](O[C@H]2[C@H](Oc3cccc4c(O)c5c(=O)oc6ccc(C)c7c(=O)oc(c34)c5c67)O[C@H](C)[C@@H]3OC(c4ccccc4)O[C@@H]32)[C@@H]1O (stereo partly drawn) [exo-BC, Exo-3',4'-O-benzylidenechartreusin, reference compound]	2.1 (≈ 2.88 µM)	–	–	–	–	–	–	–	–	–	–	–
Cc1ccc2oc(=O)c3c(O)c4cccc(O[C@@H]5O[C@H](C)[C@H](O)[C@H](O)[C@H]5O[C@H]5O[C@H](C)[C@H](O)[C@H](O)[C@H]5O)c4c4oc(=O)c1c2c34 [3"-DMC, 3"-demethylchartreusin]	11 (≈ 17.6 µM)	–	–	–	has antitumorous and antibacterial activities	has antitumorous and antibacterial activities	–	–	–	–	–	–
